Measurements taken from EP2686338B1, “FUNCTIONALIZED BIOMATERIALS FOR TISSUE REGENERATION” (Nanomed3d S.r.l., priority 2011, dated 2018).
Entries after “also recorded” stand apart in the source; their conditions may differ. Residues, ends and D or L forms follow the SMILES beside them.

Experiments:
murine NSCs [1] = test: Immunofluorescence of differentiated NSC progeny on scaffolds, murine NSCs; format: cell-based; conditions: for percentages of neurons (βIIITubulin positive cells): scaffolds of stiffness 100, 500 and 1000 Pa, best values, softer scaffolds; for differentiated neurons (βIIITubulin positive cells) versus scaffold stiffness: stiffness 100, 500 and 1000 Pa, P<0.05, P<0.01
Description: (§1) In vitro tests were performed as previously described (8), in order to assess whether the biomaterials (assembled hydrogels) obtained with the SAPs of the present invention influenced NSCs adhesion, survival and/or differentiation. SAPeptides (30 µl for each well at a concentration of 10 mg/ml) were assembled into 96 multiwells two hours before cell. Cells (at a concentration of 2x10^4 cells/cm^2) were seeded on the top-surface of each assembled scaffold. Initially, cells were cultured with basal medium supplemented with βFGF (10 ng/ml), added to enhance neuronal progeny differentiation. At 3 days in vitro (DIV), βFGF medium was replaced with Leukemia Inhibitory Factor (LIF, Chemicon) (20 ng/ml) and Brain Derived Neurotrophic Factor (BDNF, Peprotech) (20 ng/ml). Fresh medium was added every three days. For both viability and differentiation assays positive and negative controls consisted of Cultrex-BME® substrate (R&D systems) (1:100 dilution in basal medium) and untreated bottom well surfaces respectively. Cell viability was quantified via CellTiter 96® Aqueous Proliferation Assay (Promega) at 7 DIV as recommended in the Promega protocol. After calibrating the linear response between the cell number and absorbance values, proliferated cell populations were quantified (n=5) by using a Vmax microplate reader (Molecular Devices) at 490nm wavelength. Values, reported as means ± standard error of the mean, were blanked to their respective controls consisting of same substrates and cell culture media without cells.
Immunofluorescence tests were performed for assaying the phenotypes of the differentiated human and murine NSC progenies. In the case of KLP and Ac-KLP just murine NSC have been used. Ac-KLP and KLP scaffolds were prepared at different concentrations in order to display three different stiffness values (viz. 100, 500 and 1000 Pa). This was done to assess the influence of scaffold concentration (and consequently its stiffness) over NSC differentiation. All the other peptides were tested at 1% v/w concentration instead. The following antibodies were used: rabbit polyclonal against GFAP (1:500, DakoCytomation) for astrocytes, mouse monoclonal against βIII-Tubulin (1:500, Covance) for neurons, mouse monoclonal against GalC (1:200, Chemicon) and O4 (1:200, Chemicon) for oligodendrocyes. Secondary Abs were Goat anti Mouse Alexa 488 (1:1000, Molecular Probes), Goat anti Mouse Cy3 (1:1000, Jackson Immunoresearch), Goat anti Rabbit Cy3 (1:1000, Jackson Immunoresearch). Cell nuclei were counterstained with DAPI (Molecular Probes). Quantitative analyses were performed by counting 100-300 cells for each of 9 randomly chosen fields over a total of 3 independent experiments. Phase contrast and fluorescence images of the adhering cells were acquired via Zeiss microscopes Axioplan 2 and ApoTome System at one week after seeding.

[2] = Rheology (frequency, time and strain sweeps); format: physicochemical; conditions: for G' pre-assembling: average storage modulus of SAPeptide solution, before PBS; for G' pre-assembling / G' post-assembling: 1-100 Hz; for G' post-assembling: average storage modulus of jellified scaffold, after PBS; for Onset point (% strain): strain percentage at rupture, strain sweep at 1 Hz, 25 C
Description: Rheological properties of the self-assembling peptides of the invention were determined using a controlled stress TA Instruments AR-2000ex rheometer (TA Instruments). A cone-and-plate geometry (acrylic cone diameter, 20 mm; angle, 1°; truncation gap 34 µm) was used. Preliminary strain sweeps were performed for each sample to define the linear viscoelastic region, thus ensuring that moduli were independent of strain. Time sweeps, after addition of PBS (1x) were recorded at 25 C (angular frequency ω=1 Hz) and continued till G' plateaued. Frequency sweeps, both for peptide water solutions and for self-assembled scaffolds, were performed at 25 C with the instrument in oscillatory mode at controlled strain of 1 %. Final strain sweeps was performed at 1Hz oscillatory frequency and at 25 C: onset point of failure was calculated by linear interpolation and subsequent determination of the intersection of the G' modes within the linear region and at material failure respectively.

murine NSCs [3] = test: Imaging and cell proliferation (MTS) assay on assembled scaffolds, murine NSCs; format: cell-based
Description: as §1

human NSCs = test: Imaging and cell proliferation (MTS) assay on assembled scaffolds, human NSCs; format: cell-based; conditions: 7 DIV; scaffolds 10 mg/ml; vs control, P<0.03, n=5
Description: as §1

SMILES	percentages of neurons (βIIITubulin positive cells) (murine NSCs [1])	differentiated neurons (βIIITubulin positive cells) versus scaffold stiffness (murine NSCs [1])	G' and G" values at different concentrations ([2]; 1% w/v, 2% w/v and 3% w/v)	G' pre-assembling ([2]; 1% w/v) [Pa]	G' post-assembling ([2]; 1% w/v) [Pa]	Onset point (% strain) [2] [%]	cell morphology, adhesion and spreading (murine NSCs [3]; 7 DIV on assembled hydrogels)	cell viability (MTS, cell population) (human NSCs)	cell viability (MTS, cell population) (murine NSCs [3]; 7 DIV, scaffolds 10 mg/ml, vs control, P<0.005, n=5)
CC(=O)N[C@@H](CCCCN)C(=O)N[C@@H](CC(C)C)C(=O)N1CCC[C@H]1C(=O)NCC(=O)N[C@@H](Cc1c[nH]c2ccccc12)C(=O)N[C@@H](CO)C(=O)NCC(=O)NCC(=O)NCC(=O)NCC(=O)N[C@@H](CC(C)C)C(=O)N[C@@H](CC(=O)O)C(=O)N[C@@H](CC(C)C)C(=O)N[C@@H](CCCCN)C(=O)N[C@@H](CC(C)C)C(=O)N[C@@H](CC(=O)O)C(=O)N[C@@H](CC(C)C)C(=O)N[C@@H](CCCCN)C(=O)N[C@@H](CC(C)C)C(=O)N[C@@H](CC(=O)O)C(=O)N[C@@H](CC(C)C)C(=O)N[C@@H](CCCCN)C(N)=O [Ac-KLP, Ac-KLPGWSG-GGG-LDLKLDLKLDLK-CONH2] (Ac-KLPGWSGGGGLDLKLDLKLDLK-NH2)	above 50%	significant increments of differentiated neurons	increased with concentration increments	2.88	91.2	47.82			
CC(=O)N[C@@H](CCC(N)=O)C(=O)N[C@@H](Cc1c[nH]cn1)C(=O)N[C@@H](CC(C)C)C(=O)N1CCC[C@H]1C(=O)N[C@@H](CCCNC(=N)N)C(=O)N[C@@H](CC(=O)O)C(=O)N[C@@H](Cc1c[nH]cn1)C(=O)NCC(=O)NCC(=O)NCC(=O)N[C@@H](CC(C)C)C(=O)N[C@@H](CC(=O)O)C(=O)N[C@@H](CC(C)C)C(=O)N[C@@H](CCCCN)C(=O)N[C@@H](CC(C)C)C(=O)N[C@@H](CC(=O)O)C(=O)N[C@@H](CC(C)C)C(=O)N[C@@H](CCCCN)C(=O)N[C@@H](CC(C)C)C(=O)N[C@@H](CC(=O)O)C(=O)N[C@@H](CC(C)C)C(=O)N[C@@H](CCCCN)C(N)=O [Ac-QHL, Ac-QHLPRDH-GGG-LDLKLDLKLDLK-CONH2] (Ac-QHLPRDHGGGLDLKLDLKLDLK-NH2)				2.68	166.7	10.16			
CC(=O)N[C@@H](CO)C(=O)N[C@@H](CO)C(=O)N[C@@H](CC(C)C)C(=O)N[C@@H](CO)C(=O)N[C@H](C(=O)N[C@@H](CC(N)=O)C(=O)N[C@@H](CC(=O)O)C(=O)NCC(=O)NCC(=O)NCC(=O)N[C@@H](CC(C)C)C(=O)N[C@@H](CC(=O)O)C(=O)N[C@@H](CC(C)C)C(=O)N[C@@H](CCCCN)C(=O)N[C@@H](CC(C)C)C(=O)N[C@@H](CC(=O)O)C(=O)N[C@@H](CC(C)C)C(=O)N[C@@H](CCCCN)C(=O)N[C@@H](CC(C)C)C(=O)N[C@@H](CC(=O)O)C(=O)N[C@@H](CC(C)C)C(=O)N[C@@H](CCCCN)C(N)=O)C(C)C [Ac-SSL, Ac-SSLSVND-GGG-LDLKLDLKLDLK-CONH2] (Ac-SSLSVNDGGGLDLKLDLKLDLK-NH2)				6.72	267.3	26.12			
CC(C)C[C@H](NC(=O)CNC(=O)CNC(=O)CNC(=O)CNC(=O)[C@H](CO)NC(=O)[C@H](Cc1c[nH]c2ccccc12)NC(=O)CNC(=O)[C@@H]1CCCN1C(=O)[C@H](CC(C)C)NC(=O)[C@@H](N)CCCCN)C(=O)N[C@@H](CC(=O)O)C(=O)N[C@@H](CC(C)C)C(=O)N[C@@H](CCCCN)C(=O)N[C@@H](CC(C)C)C(=O)N[C@@H](CC(=O)O)C(=O)N[C@@H](CC(C)C)C(=O)N[C@@H](CCCCN)C(=O)N[C@@H](CC(C)C)C(=O)N[C@@H](CC(=O)O)C(=O)N[C@@H](CC(C)C)C(=O)N[C@@H](CCCCN)C(N)=O [KLP, NH2-KLPGWSG-GGG-LDLKLDLKLDLK-CONH2] (H-KLPGWSGGGGLDLKLDLKLDLK-NH2)	above 50%	significant increments of differentiated neurons		3.30	51.38	56.46	fostered NSCs adhesion and spreading similarly to FAQ		
CC(C)C[C@H](NC(=O)CNC(=O)CNC(=O)CNC(=O)[C@H](Cc1c[nH]cn1)NC(=O)[C@H](CC(=O)O)NC(=O)[C@H](CCCNC(=N)N)NC(=O)[C@@H]1CCCN1C(=O)[C@H](CC(C)C)NC(=O)[C@H](Cc1c[nH]cn1)NC(=O)[C@@H](N)CCC(N)=O)C(=O)N[C@@H](CC(=O)O)C(=O)N[C@@H](CC(C)C)C(=O)N[C@@H](CCCCN)C(=O)N[C@@H](CC(C)C)C(=O)N[C@@H](CC(=O)O)C(=O)N[C@@H](CC(C)C)C(=O)N[C@@H](CCCCN)C(=O)N[C@@H](CC(C)C)C(=O)N[C@@H](CC(=O)O)C(=O)N[C@@H](CC(C)C)C(=O)N[C@@H](CCCCN)C(N)=O [QHL, NH2-QHLPRDH-GGG-LDLKLDLKLDLK-CONH2] (H-QHLPRDHGGGLDLKLDLKLDLK-NH2)				4.53	296.9	28.58		significantly fostered cell viability; also recorded: significantly favored	significantly fostered cell viability; also recorded: significantly favored
CC(C)C[C@H](NC(=O)CNC(=O)CNC(=O)CNC(=O)[C@H](CC(=O)O)NC(=O)[C@H](CC(N)=O)NC(=O)[C@@H](NC(=O)[C@H](CO)NC(=O)[C@H](CC(C)C)NC(=O)[C@H](CO)NC(=O)[C@@H](N)CO)C(C)C)C(=O)N[C@@H](CC(=O)O)C(=O)N[C@@H](CC(C)C)C(=O)N[C@@H](CCCCN)C(=O)N[C@@H](CC(C)C)C(=O)N[C@@H](CC(=O)O)C(=O)N[C@@H](CC(C)C)C(=O)N[C@@H](CCCCN)C(=O)N[C@@H](CC(C)C)C(=O)N[C@@H](CC(=O)O)C(=O)N[C@@H](CC(C)C)C(=O)N[C@@H](CCCCN)C(N)=O [SSL, NH2-SSLSVND-GGG-LDLKLDLKLDLK-CONH2] (H-SSLSVNDGGGLDLKLDLKLDLK-NH2)				9.01	124.7	17.78			
